Source: paper PMC11951252 (RSC Advances, 2025)

How the values were obtained:
PC-3 = assay: Antiproliferative MTT assay, PC-3; assay type: cell-based; details: Homo sapiens, PC-3, read-out: Antiproliferative activity IC50 ± SEM, PC-3
HCT-116 = assay: Antiproliferative MTT assay, HCT-116; assay type: cell-based; details: Homo sapiens, HCT-116, read-out: Antiproliferative activity IC50 ± SEM, HCT-116
MCF-7 = assay: Antiproliferative MTT assay, MCF-7; assay type: cell-based, human; details: for IC50: Homo sapiens, MCF7, read-out: Antiproliferative activity IC50 ± SEM, MCF-7
[1] = system: four human cancer cell lines (HCT-116, PC-3, MCF-7, MDAMB-231); assay: Antiproliferative MTT assay, average over four cancer cell lines; assay type: cell-based; details: for GI50: average IC50 of the four cancer cell lines; for fold less potent than compound 4n (GI50): ratio of GI50 values
MDAMB-231 = assay: Antiproliferative MTT assay, MDAMB-231; assay type: cell-based, human
EGFR-TK = EGFR-TK (Homo sapiens, UniProt P00533); assay: EGFR inhibitory assay; assay type: biochemical
HER2-TK = HER2-TK (Homo sapiens, UniProt P04626); assay: HER2 inhibitory assay; assay type: biochemical; details: HER2 IC50 ± SEM, Table 3
Sequence of HER2-TK (P04626 676-1255 limits assumed): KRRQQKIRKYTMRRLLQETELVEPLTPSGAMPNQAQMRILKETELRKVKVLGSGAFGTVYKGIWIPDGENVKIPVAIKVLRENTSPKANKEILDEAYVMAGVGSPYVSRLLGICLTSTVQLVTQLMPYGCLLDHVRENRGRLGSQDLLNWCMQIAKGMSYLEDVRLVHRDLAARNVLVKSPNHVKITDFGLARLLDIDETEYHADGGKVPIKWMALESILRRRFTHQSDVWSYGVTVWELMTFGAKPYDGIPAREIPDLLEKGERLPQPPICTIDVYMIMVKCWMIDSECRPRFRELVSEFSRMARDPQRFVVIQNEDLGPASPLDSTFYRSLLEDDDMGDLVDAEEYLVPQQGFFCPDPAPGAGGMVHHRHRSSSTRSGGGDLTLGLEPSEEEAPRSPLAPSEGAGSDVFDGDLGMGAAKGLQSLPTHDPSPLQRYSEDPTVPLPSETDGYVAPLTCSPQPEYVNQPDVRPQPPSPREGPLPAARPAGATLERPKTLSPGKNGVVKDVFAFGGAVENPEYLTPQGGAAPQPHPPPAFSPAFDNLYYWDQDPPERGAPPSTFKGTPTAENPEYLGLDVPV

Sequence of EGFR-TK (P00533 669-1210): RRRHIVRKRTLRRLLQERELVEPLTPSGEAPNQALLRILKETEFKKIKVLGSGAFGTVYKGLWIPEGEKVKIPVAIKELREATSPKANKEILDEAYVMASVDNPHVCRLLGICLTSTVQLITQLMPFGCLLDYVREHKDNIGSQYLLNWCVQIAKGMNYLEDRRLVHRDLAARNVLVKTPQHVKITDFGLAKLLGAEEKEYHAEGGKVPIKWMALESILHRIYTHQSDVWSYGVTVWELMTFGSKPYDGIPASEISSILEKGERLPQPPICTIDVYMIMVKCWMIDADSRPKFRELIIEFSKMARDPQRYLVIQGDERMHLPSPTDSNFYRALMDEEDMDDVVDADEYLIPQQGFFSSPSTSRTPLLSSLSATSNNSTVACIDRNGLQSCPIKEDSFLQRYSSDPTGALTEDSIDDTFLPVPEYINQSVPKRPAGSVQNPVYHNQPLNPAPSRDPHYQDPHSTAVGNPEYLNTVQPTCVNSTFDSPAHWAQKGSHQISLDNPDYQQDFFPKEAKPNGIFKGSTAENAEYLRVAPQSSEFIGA

IC50 (PC-3) [µM]	IC50 (HCT-116) [µM]	IC50 (MCF-7) [µM]	GI50 ([1]; Homo sapiens) [µM]	Compound	also measured
46.3 ± 2.5	32.1 ± 2.1	19.6 ± 1.4		COc1ccc(N2CCN(CC(=O)Nc3ccc(C4=NN(C(C)=O)C(c5ccccc5)C4)cc3)CC2)cc1 (stereo not shown) [5a, N-(4-(1-Acetyl-5-phenyl-4,5-dihydro-1H-pyrazol-3-yl)phenyl)-2-(4-(4-methoxyphenyl)piperazin-1-yl)acetamide]	
21.9 ± 1.6	24.9 ± 1.8	13.8 ± 1.1	18	COc1ccc(N2CCN(CC(=O)Nc3ccc(C4=NN(C(C)=O)C(c5ccc(C)cc5)C4)cc3)CC2)cc1 (stereo not shown) [5b, N-(4-(1-Acetyl-5-(p-tolyl)-4,5-dihydro-1H-pyrazol-3-yl)phenyl)-2-(4-(4-methoxy-phenyl)piperazin-1-yl)acetamide]	
16.2 ± 1.3	18.6 ± 1.5	9.68 ± 0.8	13	COc1ccc(C2CC(c3ccc(NC(=O)CN4CCN(c5ccc(OC)cc5)CC4)cc3)=NN2C(C)=O)cc1 (stereo not shown) [5c, N-(4-(1-Acetyl-5-(4-methoxyphenyl)-4,5-dihydro-1H-pyrazol-3-yl)phenyl)-2-(4-(4-methoxyphenyl)piperazin-1-yl)acetamide]	
29.6 ± 1.9	26.8 ± 2	15.2 ± 1.3		COc1ccc(N2CCN(CC(=O)Nc3ccc(C4=NN(C(C)=O)C(c5ccc(Br)cc5)C4)cc3)CC2)cc1 (stereo not shown) [5e, N-(4-(1-Acetyl-5-(4-bromophenyl)-4,5-dihydro-1H-pyrazol-3-yl)phenyl)-2-(4-(4-methoxyphenyl)piperazin-1-yl)acetamide]	
57.8 ± 3.3	54 ± 3.2	47.5 ± 2.6		COc1ccc(N2CCN(CC(=O)Nc3ccc(C4=NN(C(C)=O)C(c5ccc(Cl)cc5Cl)C4)cc3)CC2)cc1 (stereo not shown) [5f, N-(4-(1-Acetyl-5-(2,4-dichlorophenyl)-4,5-dihydro-1H-pyrazol-3-yl)phenyl)-2-(4-(4-methoxyphenyl)piperazin-1-yl)acetamide]	
7.48 ± 0.6	8.06 ± 0.7	3.78 ± 0.2	6	COc1ccc(N2CCN(CC(=O)Nc3ccc(C4=NN(C(C)=O)C(c5ccco5)C4)cc3)CC2)cc1 (stereo not shown) [5g, N-(4-(1-Acetyl-5-(furan-2-yl)-4,5-dihydro-1H-pyrazol-3-yl)phenyl)-2-(4-(4-methoxy-phenyl)piperazin-1-yl)acetamide]	times less effective as EGFR inhibitors than erlotinib (EGFR-TK): at least 10 times; IC50 (EGFR-TK; EGFR IC50 ± SEM): 2.38 µM; IC50 (HER2-TK): 1.54 µM
87.6 ± 4.3	74.9 ± 4.1	85.4 ± 4.6		CC(=O)N1N=C(c2ccc(NC(=O)CN3CCN(c4ccc(Cl)cc4)CC3)cc2)CC1c1ccccc1 (stereo not shown) [5h, N-(4-(1-Acetyl-5-phenyl-4,5-dihydro-1H-pyrazol-3-yl)phenyl)-2-(4-(4-chloro-phenyl)piperazin-1-yl)acetamide]	
67.8 ± 3.6	62.5 ± 3.4	54.7 ± 3.1		CC(=O)N1N=C(c2ccc(NC(=O)CN3CCN(c4ccc(Cl)cc4)CC3)cc2)CC1c1ccc(C)cc1 (stereo not shown) [5i, N-(4-(1-Acetyl-5-(p-tolyl)-4,5-dihydro-1H-pyrazol-3-yl)phenyl)-2-(4-(4-chloro-phenyl)piperazin-1-yl)acetamide]	
> 100	> 100	94 ± 4.9	100	COc1ccc(C2CC(c3ccc(NC(=O)CN4CCN(c5ccc(Cl)cc5)CC4)cc3)=NN2C(C)=O)cc1 (stereo not shown) [5j, N-(4-(1-Acetyl-5-(4-methoxyphenyl)-4,5-dihydro-1H-pyrazol-3-yl)phenyl)-2-(4-(4-chlorophenyl)piperazin-1-yl)acetamide]	
45.7 ± 2.6	52.8 ± 3	40.8 ± 2.4		COc1cc(C2CC(c3ccc(NC(=O)CN4CCN(c5ccc(Cl)cc5)CC4)cc3)=NN2C(C)=O)cc(OC)c1OC (stereo not shown) [5k, N-(4-(1-Acetyl-5-(3,4,5-trimethoxyphenyl)-4,5-dihydro-1H-pyrazol-3-yl)phenyl)-2-(4-(4-chlorophenyl)piperazin-1-yl)acetamide]	
76.7 ± 3.9	69.9 ± 3.7	71.3 ± 3.6		CC(=O)N1N=C(c2ccc(NC(=O)CN3CCN(c4ccc(Cl)cc4)CC3)cc2)CC1c1ccc(Cl)cc1Cl (stereo not shown) [5m, N-(4-(1-Acetyl-5-(2,4-dichlorophenyl)-4,5-dihydro-1H-pyrazol-3-yl)phenyl)-2-(4-(4-chlorophenyl)piperazin-1-yl)acetamide]	
36.8 ± 2.2	39.6 ± 2.3	23.9 ± 1.7		CC(=O)N1N=C(c2ccc(NC(=O)CN3CCN(c4ccc(Cl)cc4)CC3)cc2)CC1c1ccco1 (stereo not shown) [5n, N-(4-(1-Acetyl-5-(furan-2-yl)-4,5-dihydro-1H-pyrazol-3-yl)phenyl)-2-(4-(4-chlorophenyl)piperazin-1-yl)acetamide]	

The remaining lines, values behind:

Compound	IC50 (PC-3) [µM]	IC50 (HCT-116) [µM]	IC50 (MCF-7) [µM]	GI50 ([1]; Homo sapiens) [µM]	also measured
COc1ccc(N2CCN(CC(=O)Nc3ccc(C(=O)C=Cc4ccccc4)cc3)CC2)cc1 [4a, N-(4-Cinnamoylphenyl)-2-(4-(4-methoxyphenyl)piperazin-1-yl)acetamide]	78.2 ± 4	68.6 ± 3.7	72.4 ± 3.7		
COc1ccc(N2CCN(CC(=O)Nc3ccc(C(=O)C=Cc4ccc(C)cc4)cc3)CC2)cc1 [4b, 2-(4-(4-Methoxyphenyl)piperazin-1-yl)-N-(4-(3-(p-tolyl)acryloyl)phenyl)acetamide]	32 ± 2.1	79.6 ± 3.8	65.5 ± 3.5		
COc1ccc(C=CC(=O)c2ccc(NC(=O)CN3CCN(c4ccc(OC)cc4)CC3)cc2)cc1 [4c, N-(4-(3-(4-Methoxyphenyl)acryloyl)phenyl)-2-(4-(4-methoxyphenyl)piperazin-1-yl)acetamide]	34.5 ± 2.1	18.1 ± 1.4	28.3 ± 1.8		
COc1ccc(N2CCN(CC(=O)Nc3ccc(C(=O)C=Cc4cc(OC)c(OC)c(OC)c4)cc3)CC2)cc1 [4d, 2-(4-(4-Methoxyphenyl)piperazin-1-yl)-N-(4-(3-(3,4,5-trimethoxyphenyl)acryloyl)phenyl)acetamide]	61.4 ± 3.5	29.1 ± 1.9	24.2 ± 1.7		
COc1ccc(N2CCN(CC(=O)Nc3ccc(C(=O)C=Cc4ccc(Br)cc4)cc3)CC2)cc1 [4e, N-(4-(3-(4-Bromophenyl)acryloyl)phenyl)-2-(4-(4-methoxyphenyl)piperazin-1-yl)acetamide]	73.9 ± 3.8	64.8 ± 3.5	52.5 ± 2.9		
COc1ccc(N2CCN(CC(=O)Nc3ccc(C(=O)C=Cc4ccc(Cl)cc4Cl)cc3)CC2)cc1 [4f, N-(4-(3-(2,4-Dichlorophenyl)acryloyl)phenyl)-2-(4-(4-methoxyphenyl)piperazin-1-yl)acetamide]	> 100	> 100	> 100		
COc1ccc(N2CCN(CC(=O)Nc3ccc(C(=O)C=Cc4ccco4)cc3)CC2)cc1 [4g, N-(4-(3-(Furan-2-yl)acryloyl)phenyl)-2-(4-(4-methoxyphenyl)piperazin-1-yl)acetamide]	14.2 ± 1.2	17.3 ± 1.4	9.37 ± 0.7	12	fold less potent than compound 4n (GI50) [1]: 1.7; fold less potent than 4n, MCF-7 (MCF-7): 2 fold; fold less potent than 4n, MDAMB-231 (MDAMB-231): 2 fold
O=C(CN1CCN(c2ccc(Cl)cc2)CC1)Nc1ccc(C(=O)C=Cc2ccccc2)cc1 [4h, 2-(4-(4-Chlorophenyl)piperazin-1-yl)-N-(4-cinnamoylphenyl)acetamide]	20.4 ± 1.5	49.6 ± 2.8	41.3 ± 2.4		
Cc1ccc(C=CC(=O)c2ccc(NC(=O)CN3CCN(c4ccc(Cl)cc4)CC3)cc2)cc1 [4i, 2-(4-(4-Chlorophenyl)piperazin-1-yl)-N-(4-(3-(p-tolyl)acryloyl)phenyl)acetamide]	> 100	86.1 ± 4.3	91.6 ± 4.6	90	fold less potent than compound 4n (GI50) [1]: 13
COc1ccc(C=CC(=O)c2ccc(NC(=O)CN3CCN(c4ccc(Cl)cc4)CC3)cc2)cc1 [4j, 2-(4-(4-Chlorophenyl)piperazin-1-yl)-N-(4-(3-(4-methoxyphenyl)acryloyl)phenyl)acetamide]	66.8 ± 3.5	27.4 ± 1.9	42.9 ± 2.5		
COc1cc(C=CC(=O)c2ccc(NC(=O)CN3CCN(c4ccc(Cl)cc4)CC3)cc2)cc(OC)c1OC [4k, 2-(4-(4-Chlorophenyl)piperazin-1-yl)-N-(4-(3-(3,4,5-trimethoxyphenyl)acryloyl)phenyl)acetamide]	42.9 ± 2.5	34.8 ± 2.2	17.9 ± 1.4		
O=C(CN1CCN(c2ccc(Cl)cc2)CC1)Nc1ccc(C(=O)C=Cc2ccc(Br)cc2)cc1 [4l, N-(4-(3-(4-Bromophenyl)acryloyl)phenyl)-2-(4-(4-chlorophenyl)piperazin-1-yl)acetamide]	86.4 ± 4.3	75.4 ± 4.1	80.8 ± 3.9	76	fold less potent than compound 4n (GI50) [1]: 11
O=C(CN1CCN(c2ccc(Cl)cc2)CC1)Nc1ccc(C(=O)C=Cc2ccc(Cl)cc2Cl)cc1 [4m, 2-(4-(4-Chlorophenyl)piperazin-1-yl)-N-(4-(3-(2,4dichlorophenyl)acryloyl)phenyl)acetamide]	55.2 ± 3.2	44.8 ± 2.6	35.8 ± 2.2		
COc1cccc2c1C(=O)c1c(O)c3c(c(O)c1C2=O)C[C@@](O)(C(=O)CO)C[C@@H]3O[C@H]1C[C@H](N)[C@H](O)[C@H](C)O1 [Doxorubicin, reference compound]				5	
CNC(=O)c1cc(Oc2ccc(NC(=O)Nc3ccc(Cl)c(C(F)(F)F)c3)cc2)ccn1 [Sorafenib, reference compound]	11.5 ± 0.9			8	GI50 [1]: 7 µM
